Results taken from patent publication US20240398806A1, “Compositions For and Methods of Treating and/or Preventing Pain” (Duke University, priority 2021, published 2024).

Experiments:
[1] = Intravenous cocaine self-administration; assay type: in vivo, mice; settings: 2, 6 or 12 mg/kg i.p.; cocaine 0.1-1 mg/kg/infusion
Protocol: Once stable performance was achieved, self-administration was assessed once daily in 60 min sessions. Animals received vehicle (saline, i.p.) or SBI-553 (2, 6, or 12 mg/kg, i.p.) immediately prior to placement into self-administration chambers with access to cocaine at doses of 0.1, 0.3, 0.5, or 1 mg/kg/infusion. FIG. 7B-FIG. 7C show cocaine-induced and methamphetamine-induced hyperlocomotion.
The effect of SBI-553 on cocaine self-administration was both cocaine-dose dependent and SBI-553-dose dependent. […] In the presence of β-arrestin2, SBI-553 reduced activity in mice. A 12 mg/kg (i.p.) dose of SBI-553 decreased both cocaine-and methamphetamine-induced hyperlocomotion in wild-type (WT) mice on a C57BL/6J background (FIG. 7B-FIG. 7C). […] Conversely, a significant reduction in locomotion was absent in global β-arrestin2 KO mice (Slosky L M, et al. (2020) Cell. 181(6):1364-1379e14).

[2] = system: lamina IIo neurons; parameters: dose or concentration left out as unconfirmed; settings: slices of PTX-treated mice
[3] = molecular target: NTSR1 (Homo sapiens, UniProt P30989); test: Confocal β-arrestin2 translocation assay in U2OS cells expressing NTSR1 and β-arrestin2-GFP; assay type: cell-based; parameters: expressed in transfected cells; also transient transfection; settings: compared with NT
Protocol: Scale bar, […]. […] The ordinate axis in counts per minute (CPM) represents specifically bound ^125I-NT. In each experiment, the assays were conducted in quadruplicate, and data are expressed as the mean+SEM (n=4 separate experiments) and were analyzed using one-way ANOVA with Tukey's multiple comparison post hoc test. Curve fitting and statistical analyses were performed using GraphPad Prism V5.04.
The translocation of β-arrestin2 to the membrane by NTSR1 was assessed using a U2OS cell line permanently expressing the NTSR1 and green fluorescent protein (GFP) tagged-β-arrestin2, as described (Barak et al., 2016). Briefly, on day 1, stable cells were split into MGB101-1-2-LG glass-bottom 384-well plates (MatriCal, Spokane, WA, USA). Each well contained 30) mL aliquots of 8,000 cells in Minimum Eagle's medium (MEM) containing 10% fetal bovine serum (FBS) and 100 U/mL penicillin/streptomycin (Life Technologies, Grand Island, NY, USA). The plates were incubated overnight at 37°° C, in 5% CO2, and on the following day the media was changed to […] serum-and phenol red-free MEM. […] After treatment, plates were returned to the incubator for 40 min. […] Images were analyzed using a wavelet algorithm to measure formation of fluorescence aggregates (Evron et al., 2014). […] Analyzed image results were visually confirmed. […]

NTSR1, sequence (P30989 whole entry): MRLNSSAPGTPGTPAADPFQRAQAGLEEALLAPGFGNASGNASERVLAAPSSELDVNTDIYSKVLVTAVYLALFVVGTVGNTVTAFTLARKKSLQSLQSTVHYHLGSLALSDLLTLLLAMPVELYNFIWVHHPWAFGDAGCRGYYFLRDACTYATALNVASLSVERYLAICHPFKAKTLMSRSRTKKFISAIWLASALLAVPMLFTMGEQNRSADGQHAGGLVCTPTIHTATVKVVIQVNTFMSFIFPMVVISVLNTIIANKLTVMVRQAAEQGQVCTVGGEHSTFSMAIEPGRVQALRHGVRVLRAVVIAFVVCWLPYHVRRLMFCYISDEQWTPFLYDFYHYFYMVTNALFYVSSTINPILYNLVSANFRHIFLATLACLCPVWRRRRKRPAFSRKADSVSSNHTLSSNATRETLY
NTSR1, sequence (P32121 whole entry partner): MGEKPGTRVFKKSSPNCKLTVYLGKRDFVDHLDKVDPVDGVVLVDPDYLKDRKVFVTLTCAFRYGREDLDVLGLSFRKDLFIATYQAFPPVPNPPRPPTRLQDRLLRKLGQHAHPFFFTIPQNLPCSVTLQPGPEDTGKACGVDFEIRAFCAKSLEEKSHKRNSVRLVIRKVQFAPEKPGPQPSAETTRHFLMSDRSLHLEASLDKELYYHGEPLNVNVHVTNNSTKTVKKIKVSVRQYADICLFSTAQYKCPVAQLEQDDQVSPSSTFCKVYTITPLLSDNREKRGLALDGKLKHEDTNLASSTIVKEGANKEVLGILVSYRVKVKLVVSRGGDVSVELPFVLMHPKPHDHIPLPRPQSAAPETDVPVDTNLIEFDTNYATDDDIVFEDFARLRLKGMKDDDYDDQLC

- Intracellular translocation of β-arrestin [3]: as effective as NT
Compound: COc1ccccc1C1CCN(c2nc(C3(F)CC3)nc3ccc(N(C)CCO)cc23)CC1 [SBI-553]
- Cocaine self-administration [1]: maintenance intake reduction
- Excitatory synaptic transmission (sEPSCs) in lamina IIo neurons [2]: significantly suppressed
